From patent publication US12697328B2, “Methods for treating metastasis with cathepsin C inhibitors” (Shanghai Institute of Nutrition and Health, Chinese Academy …, priority 2020, dated 2026)

Assays:
Assay type in all cases: cell-based
[1] = test system: colon cancer cells SW480; experiment: NET-promoted tumor sphere formation, colon cancer; conditions: neutrophil medium, CM with or without brensocatib, FIG. 11K
Experimental: (§1) To test the therapeutic effects of brensocatib in different cancer types in vitro, the ability of brensocatib to inhibit NET-promoted tumor sphere formation is investigated. The neutrophils are cultured with conditioned medium from tumor cells of colon cancer, liver cancer, lung cancer, gastric cancer and pancreatic cancer with or without brensocatib treatment to activate NETosis, and then the neutrophil medium was used in tumor sphere formation of these cancer cells to analyze the effect of neutrophil medium to facilitate tumor cell growth. The amount of tumorsphere in each sample is then determined by imaging.

[2] = test system: gastric cancer cells AGS; experiment: NET-promoted tumor sphere formation, gastric cancer; conditions: neutrophil medium, CM with or without brensocatib, FIG. 11M
Experimental: as §1

[3] = test system: lung cancer cells A549; experiment: NET-promoted tumor sphere formation, lung cancer; conditions: neutrophil medium, CM with or without brensocatib, FIG. 11L
Experimental: as §1

[4] = test system: liver-metastatic breast cancer cell SCP16; experiment: Tumor sphere formation of liver-metastatic breast cancer cells in neutrophil medium; conditions: neutrophils cultured with cancer cell CM with or without brensocatib, FIG. 11H
Experimental: The neutrophils are cultured with conditioned medium from the cancer cells with or without brensocatib treatment to activate NETosis, and then the neutrophil medium was used in tumor sphere formation of bone and liver-metastatic breast cancer cells to analyze the effect of neutrophil medium to facilitate tumor cell growth. The data are shown in FIG. 11E for bone-metastatic breast cancer cell SCP2 and FIG. 11H for liver-metastatic breast cancer cell SCP16.

[5] = test system: murine neutrophils; experiment: Reactive oxygen species (ROS) analysis of neutrophils pre-treated with 4T07 conditioned medium; conditions: 4T07 CM with CTSC overexpressed, inhibitors 10 μM, FIGS. 8C, 8E
Experimental: To measure the ROS levels, neutrophils were cultured in cancer cell CM or non-conditioned medium, and treated with DMSO or various inhibitors, including Sivelestat (10 μM), BAY11-7082 (10 μM) and SB203580 (10 μM) for 1 h at 37° C. Cells were then harvested and resuspended in assay buffer (PBS, 4 mM EGTA, pH 7.4, containing 10 μM CM-H2DCFDA, Invitrogen), incubated for 15 min at 37° C. in dark, washed with pre-chilled PBS, followed by FACS analysis within 30 min.
The release of reactive oxygen species (ROS) by neutrophils is known to induce NET formation. […] Commum. 6, 6673 (2015).
ROS analysis of murine neutrophils pre-treated with 4T07 conditioned medium show increased ROS production results from CTSC overexpression (FIG. 8E).

## Cn1c(=O)oc2ccc(-c3ccc(C[C@@H](C#N)NC(=O)[C@@H]4CNCCCO4)cc3)cc21 [brensocatib, (2S)—N-{(1S)-1-cyano-2-[4-(3-methyl-2-oxo-2,3-dihydro-1,3-benzoxazol-5-yl)phenyl]ethyl}-1,4-oxazepane-2-carboxamide]
[1]
  NET-promoted tumor sphere formation (in vitro tumor growth): inhibit in vitro tumor growth
[2]
  NET-promoted tumor sphere formation (in vitro tumor growth): inhibit in vitro tumor growth
[3]
  NET-promoted tumor sphere formation (in vitro tumor growth): inhibit in vitro tumor growth
[4]
  capability of drug-treated neutrophils to facilitate tumor cell growth (tumor sphere formation): significantly weakened

## CC(C)(C)C(=O)Oc1ccc(S(=O)(=O)Nc2ccccc2C(=O)NCC(=O)O)cc1 [Silvelestat]
[5]
  ROS production / ROS levels: blocks
